Where “and” joins values, the source holds several entries; their conditions need not be identical. Equal values may be shown once.
Legend:
severe EAE = assay: Experiment 1: low doses of glatiramer acetate and minocycline on severe EAE (MOG-induced); assay type: in vivo, C57/BL6 mice; design: key to EAE clinical score, individual mouse / EAE clinical score, group average (ave): composite score 0 = no symptoms, 14 = fully quadriplegic, 15 = death; key to Sum of Scores, individual mouse / Sum of Scores, group average (ave): sum of daily clinical scores (0–15 scale) over the experiment; conditions: for effect on clinical scores of EAE: severe EAE, sub-optimal doses, FIG. 2; for Sum of Scores, group average (ave) / Sum of Scores, individual mouse: sum of daily clinical scores over the entire experiment; for effect on disease severity: summary of Experiments 1-2, sub-optimal doses
Protocol: Intraperitoneal pertussis toxin was given on the day of MOG administration and also 2 days after. FIG. 1 presents a layout of the experimental design. Minocycline was administered intraperitoneally at a sub-optimal dose (25 mg/kg) when the first mouse in the entire experiment developed signs of EAE (See FIG. 1). Minocycline was administered daily until mice were sacrificed. […] Thus, we have developed a new system in order to better differentiate functional outcomes. […] For the tail: 0—no symptoms […] For each of the hind limbs or fore limbs, each assessed separately: 0—no symptoms […] Thus, a fully paralysed quadriplegic animal would attain a score of 14. […] Death is automatically given a score of 15. Another parameter that we have employed is the “sum of scores”. This refers to the addition of each daily clinical score over the entire period of the experiment. This is a reflection of the total burden of disease, and takes into account variations in onset of disease, and the daily scores.

moderate EAE = assay: Experiment 2: low doses of glatiramer acetate and minocycline on moderate EAE; assay type: in vivo, C57/BL6 mice; conditions: sub-optimal doses, FIG. 4
Source text: The protocol of Experiment 1 was followed. […] The number of mice in each group was as follows: 8 in the vehicle group, 11 in the minocycline group, 10 in the Copaxone® group, and 9 in the combination group.

EAE [1] = assay: Experiment 3: high doses of glatiramer acetate and minocycline on EAE; assay type: in vivo, C57/BL6 mice; conditions: Copaxone 375 μg, minocycline 37.5 mg/kg
Protocol: The effects of all treatments versus the control are analyzed histologically (hematoxylin-eosin and Luxol fast blue for evidence of inflammation and demyelination, respectively). Cellular infiltrates are characterized by CD3, CD4, CD8, CD56 and CD19 immunohistochemistry. Blind evaluation (on a qualitative scale from + to ++++) is conducted on the following: the density of perivascular infiltrates, the distance of migration of leukocytes into the CNS parenchyma from blood vessels, and the degree of demyelination. The neuropathological assessments are focused on the optic nerve, lumbar cord and brainstem.

T lymphocytes = conditions: previous observation; cited from earlier work
multiple sclerosis = conditions: daily subcutaneous injections, 20 mg/injection; cited from earlier work
R-R MS = conditions: versus placebo, 9-month trial; cited from earlier work
EAE [2] = conditions: cited from earlier work
[3] = Day 0, 15-point scale, Copaxone 250 μg, minocycline 25 mg/kg i.p.

Molecule	EAE clinical score, group average (ave) (severe EAE; Day 0)	EAE clinical score, individual mouse (severe EAE; [3])	EAE clinical score, group average (ave) (severe EAE; Day 9)	EAE clinical score, individual mouse (severe EAE; Day 9)	EAE clinical score, group average (ave) (severe EAE; Day 10)	EAE clinical score, individual mouse (severe EAE; Day 10)	EAE clinical score, group average (ave) (severe EAE; Day 11)	EAE clinical score, individual mouse (severe EAE; Day 11)	EAE clinical score, group average (ave) (severe EAE; Day 12)	EAE clinical score, individual mouse (severe EAE; Day 12)	EAE clinical score, group average (ave) (severe EAE; Day 13)	EAE clinical score, individual mouse (severe EAE; Day 13)	EAE clinical score, group average (ave) (severe EAE; Day 14)	EAE clinical score, individual mouse (severe EAE; Day 14)	EAE clinical score, group average (ave) (severe EAE; Day 15)	EAE clinical score, individual mouse (severe EAE; Day 15)	EAE clinical score, group average (ave) (severe EAE; Day 16)	EAE clinical score, individual mouse (severe EAE; Day 16)	EAE clinical score, group average (ave) (severe EAE; Day 17)	EAE clinical score, individual mouse (severe EAE; Day 17)	also measured
L-glutamic acid polymer with L-alanine, L-lysine and L-tyrosine, acetate (salt) [Copaxone ®]	0	0	1	0 (7×) and 3 and 2	1	0 (5×) and 3 (2×) and 1 and 2	3	0 (3×) and 4 (2×) and 7 and 8 and 2 and 6	4	0 (2×) and 5 (2×) and 7 (2×) and 2 and 6 and 8	6	0 (2×) and 9 (3×) and 5 and 8 (2×) and 7	7	3 and 8 (5×) and 10 and 0 and 6	8	4 and 10 (6×) and 0 and 8	7	8 (4×) and 10 (2×) and 11 and 0 and 3	7	8 (2×) and 10 (2×)	EAE clinical score, group average (ave) (severe EAE; Day 18): 7; EAE clinical score, individual mouse (severe EAE; Day 18): 9 and 8 and 10; EAE clinical score, group average (ave) (severe EAE; Day 19): 7; EAE clinical score, individual mouse (severe EAE; Day 19): 7 and 8 and 12; EAE clinical score, group average (ave) (severe EAE; Day 20): 6; EAE clinical score, individual mouse (severe EAE; Day 20): 5 and 8 and 11; EAE clinical score, group average (ave) (severe EAE; Day 21): 6; EAE clinical score, individual mouse (severe EAE; Day 21): 7 (2×) and 9; EAE clinical score, group average (ave) (severe EAE; Day 22): 6; EAE clinical score, individual mouse (severe EAE; Day 22): 5 (2×) and 9; effect on clinical scores of EAE (severe EAE): slight benefit; Sum of Scores, group average (ave) (severe EAE): 75.56; Sum of Scores, individual mouse (severe EAE): 56 and 88 and 117 and 95 and 0 and 100 and 87 (2×) and 50; effect on disease severity (severe EAE): did not markedly decrease disease severity; effect on EAE severity / disease course (moderate EAE): slight attenuation of disease course; effect on disease severity (EAE [1]): significantly decreases disease severity; efficacy previously observed in the T cell transmigration assay (T lymphocytes): lack of efficacy; relapse rates, progression of disability, new MRI lesions, black holes (multiple sclerosis): reduce relapse rates; gadolinium-enhancing lesions progressing to persistent black holes (R-R MS): significantly fewer
CN(C)c1ccc(O)c2c1C[C@H]1C[C@H]3[C@H](N(C)C)C(O)=C(C(N)=O)C(=O)[C@@]3(O)C(O)=C1C2=O [Minocycline, [4S-(4∝,4a∝,5a∝,12a∝)]-4,7-bis(dimethylamino)-1,4,4a,5,5a,6,11,12a-octahydro-3,10,12,12a-tetrahydroxy-1,11-dioxo-2-naphthacenecarboxamide]	0	0	4	3 (2×) and 4 (7×)	4	4 (6×) and 6 (2×) and 3	6	8 and 5 and 6 (2×) and 7 (4×) and 4	7	7 (2×) and 6 and 9 and 8 (4×) and 4	8	7 and 9 (6×) and 4 and 10	9	8 (2×) and 10 (5×) and 4 and 9	9	11 and 10 (5×) and 9 and 4 and 6	9	11 and 10 (3×) and 8 (3×) and 9 and 3	8	10 (2×) and 8 (2×)	EAE clinical score, group average (ave) (severe EAE; Day 18): 8; EAE clinical score, individual mouse (severe EAE; Day 18): 11 (2×) and 6; EAE clinical score, group average (ave) (severe EAE; Day 19): 7; EAE clinical score, individual mouse (severe EAE; Day 19): 8 and 11 and 6; EAE clinical score, group average (ave) (severe EAE; Day 20): 7; EAE clinical score, individual mouse (severe EAE; Day 20): 8 and 11 and 5; EAE clinical score, group average (ave) (severe EAE; Day 21): 7; EAE clinical score, individual mouse (severe EAE; Day 21): 7 and 9 and 5; EAE clinical score, group average (ave) (severe EAE; Day 22): 7; EAE clinical score, individual mouse (severe EAE; Day 22): 9 (2×) and 5; effect on clinical scores of EAE (severe EAE): ineffective; Sum of Scores, group average (ave) (severe EAE): 102.3; Sum of Scores, individual mouse (severe EAE): 112 and 121 and 93 and 109 (2×) and 55 and 102 and 122 and 98; effect on disease severity (severe EAE): did not markedly decrease disease severity; effect on EAE severity / disease course (moderate EAE): did not elicit a clinical response; effect on disease severity (EAE [1]): significantly decreases disease severity; disease activity (EAE [2]; chronic relapsing remitting EAE): dramatically suppress disease activity; severity of disease (EAE [2]; mild EAE): attenuate the severity; course of disease (EAE [2]; severe EAE): delay the course

— patent publication US20070238711A1, “Combination Therapy with Glatiramer Acetate and Minocycline for the Treatment of Multiple Sclerosis” (priority 2004, published 2007)
